Reference: patent publication US10272261B2, “Methods and compositions for treating ocular glaucoma” (Massachusetts Eye and Ear Infirmary, priority 2004, dated 2019)

Test system: ciliary body
Experiment: Lectin labeling of vascular endothelial cells and TUNEL staining after PDT in C57BL/6 normal mice
Type: in vivo, mouse
Settings: 4.0 mg/kg, 180 degrees; 1 day after PDT
Description: Lectin labeling of vascular endothelial cells and TUNEL staining (to examine apoptotic cells) was performed 1 day after PDT in C57BL16 normal mice (n=2). In DBA/2J mice, only TUNEL staining was performed. PDT was performed to cover 180 degrees of the ciliary body at a dose of 4.0 mg/kg (C57BL/6) and 1.0 mg/kg (DBA/2J) verteporfin to compare the degree of staining between irradiated area and non-irradiated area. Non-operated fellow eyes (n=2) were used as controls. After sufficient anesthesia, the animals were perfused with 8 mL phosphate buffered saline (PBS) administered via a catheter in the left ventricle. After PBS perfusion, fluorescein-isothiocyanate (FITC)-coupled Concanavalin A lectin (20 μg/mL in PBS, pH 7.4, 5 mg/kg BW)(Vector Labs, Burlingame, Calif.) was then perfused to stain vascular endothelial cells. Four percent paraformaldehyde in 0.1 PBS (pH 7.4) was perfused following PBS perfusion to remove residual unbound lectin. Enucleated eyes were fixed in 4% paraformaldehyde in 0.1 PBS overnight and were immersed in graded sucrose in 0.1 PBS. The samples were embedded in optimal cutting temperature (OCT) compound (Tissue-Tek, Tokyo, Japan), and sectioned vertically at 10-μm. TUNEL staining was performed according to the manufacturer's protocol (Fluorescein In Situ Apoptosis Detection Kit; CHEMICON International, Temecula, Calif.) to detect retinal cell death induced by PDT. […]

With verteporfin the “TUNEL positive (apoptotic) cells” value was “some TUNEL positive cells in the ciliary body and retina of the PDT treated eyes” and the “lectin staining of ciliary body vessels on the treated side” value was “showed little staining with lectin”.
